According to article PMC9188596, “Structural basis of resistance to herbicides that target acetohydroxyacid synthase” (Nature Communications, 2022):
“And” between values parts separate entries of the source, which are not always exact repeats. Equal entries are not always repeated.

Key:
WT AtAHAS [1] = molecular target: T1, WT AtAHAS (Arabidopsis thaliana, UniProt P17597); assay: Ki of herbicides, continuous spectrophotometric AHAS assay; type: biochemical; details: Ki, WT AtAHAS; ± standard error of the mean
Procedure: (§1) Standard assays were performed using a continuous spectrophotometric method measuring the disappearance of pyruvate. The standard buffer contained 50 mM potassium phosphate, pH 7.2, 1 mM ThDP, 10 mM MgCl2, and 10 µM FAD. The concentration of pyruvate was in the range 100–160 mM, as described in the text, methods, or figure legends.
(§2) Supplementary Figure 6. Measurement of the Ki values for WT AtAHAS and the mutants.
(§3) The error bars represent the standard error of the mean of two independent replicates. [I] =
(§4) inhibitor concentration. Source data are provided with this paper.
(§5) (1 picture or pasted object on this page, not shown here)

AtAHAS W574L mutant [2] = molecular target: T2, AtAHAS W574L mutant (Arabidopsis thaliana, UniProt P17597, W574L); assay: biochemical
Procedure: as §1, §2, §3, §4, §5

AtAHAS P197T mutant [3] = molecular target: T3, AtAHAS P197T mutant (Arabidopsis thaliana, UniProt P17597, P197T); assay: biochemical
Procedure: as §1, §2, §3, §4, §5

AtAHAS S653T mutant [4] = molecular target: T4, AtAHAS S653T mutant (Arabidopsis thaliana, UniProt P17597, S653T); assay: biochemical; details: Ki, S653T mutant; ± standard error of the mean
Procedure: as §1, §2, §3, §4, §5

AtAHAS P197L mutant [5] = molecular target: T5, AtAHAS P197L mutant (Arabidopsis thaliana, UniProt P17597, P197L); assay: biochemical
Procedure: as §1, §2, §3, §4, §5

WT AtAHAS [6] = molecular target: T1, WT AtAHAS; type: biochemical
Procedure: as §1
(§6) AtAHAS was assayed in the standard assay buffer containing 160 mM pyruvate, at 30 °C. For AtAHAS activation the progress curve corresponding to the lag-phase was fitted to Eq. (8) of Lonhienne et al.[14]. For the time dependent accumulative inhibition of AtAHAS the progress curves were fitted to Equation 9 of Lonhienne et al.[12].
(§7) Supplementary Figure 8. Measurement of the rate constants of accumulative inhibition for WT AtAHAS and its mutants. The progress curves were fitted to the equation of accumulative inhibition (Equation 7 2). The rate constants of enzyme inactivation ( kiapp) and enzyme recovery (k3) were measured in triplicate. Source data are provided with this paper.

AtAHAS W574L mutant [7] = molecular target: T2, AtAHAS W574L mutant; type: biochemical; details: NAI = no accumulative inhibition detected
Procedure: as §1, §6
as §7, with “paper. […]” for “paper.”

AtAHAS P197T mutant [8] = molecular target: T3, AtAHAS P197T mutant; type: biochemical; details: P197T, NAI = no accumulative inhibition detected
Procedure: as §1, §6
as §7, with “paper. […]” for “paper.”

AtAHAS S653T mutant [9] = molecular target: T4, AtAHAS S653T mutant; type: biochemical
Procedure: as §1, §6
as §7, with “paper. […]” for “paper.”

AtAHAS P197L mutant [10] = molecular target: T5, AtAHAS P197L mutant; type: biochemical; details: NAI = no accumulative inhibition detected
Procedure: as §1, §6
as §7, with “paper. […]” for “paper.”

AtAHAS W574L mutant [11] = molecular target: T2, AtAHAS W574L mutant; assay: Inhibition of AHAS activity by ubiquinone Q0; type: biochemical; details: read-out: % inhibition of AHAS activity by 0.5 mM Q0
Procedure: (§8) Next, we investigated how the mutants responded to regulation by redox signaling molecules using ubiquinone Q0 (Q0) as an example[14].
(§9) Supplementary Figure 5. Inhibition of WT AtAHAS and the mutants by Q0. AtAHAS was incubated with 100 mM pyruvate at 30°C. After reaching full activation, the inhibition reaction was initiated by addition of 0.5 mM Q0 to the sample cell. After seven minutes incubation with Q0, 1 mM DTT was added to reduce the remaining Q0, triggering re-activation of the enzyme.
(§10) Source data are provided with this paper.
as §5

AtAHAS P197T mutant [12] = molecular target: T3, AtAHAS P197T mutant; assay: Inhibition of AHAS activity by ubiquinone Q0; type: biochemical; details: read-out: % inhibition of AHAS activity by 0.5 mM Q0
Procedure: as §8, §9, §10, §5

WT AtAHAS [13] = molecular target: T1, WT AtAHAS; assay: Inhibition of AHAS activity by ubiquinone Q0; type: biochemical; details: read-out: % inhibition of AHAS activity by 0.5 mM Q0
Procedure: as §8, §9, §10, §5

AtAHAS S653T mutant [14] = molecular target: T4, AtAHAS S653T mutant; assay: Inhibition of AHAS activity by ubiquinone Q0; type: biochemical; details: read-out: % inhibition of AHAS activity by 0.5 mM Q0
Procedure: as §8, §9, §10, §5

AtAHAS P197L mutant [15] = molecular target: T5, AtAHAS P197L mutant; assay: Inhibition of AHAS activity by ubiquinone Q0; type: biochemical; details: read-out: % inhibition of AHAS activity by 0.5 mM Q0
Procedure: as §8, §9, §10, §5

[16] = individual replicate of triplicate
[17] = S653T, individual replicate of triplicate

SMILES: COc1cc(OC)nc(NC(=O)NS(=O)(=O)N(C)S(C)(=O)=O)n1 [AS, amidosulfuron]
- Ki (WT AtAHAS [1]): 4.2 ± 0.6 µM
- Ki (AtAHAS W574L mutant [2]; Ki (Supplementary Figure 6), W574L, fit of % activity remaining vs [I], two independent replicates): 871 ± 66.5 µM
- Ki (AtAHAS W574L mutant [2]; Ki, W574L mutant, ± standard error of the mean): 870 ± 60 µM
- Ki (AtAHAS P197T mutant [3]; Ki (Supplementary Figure 6), P197T, fit of % activity remaining vs [I], two independent replicates): 61.4 ± 8.92 µM
- Ki (AtAHAS P197T mutant [3]; Ki, P197T mutant, ± standard error of the mean): 61.4 ± 8.9 µM
- Ki (AtAHAS S653T mutant [4]): 0.492 ± 0.025 µM
- Ki (AtAHAS P197L mutant [5]; Ki (Supplementary Figure 6), P197L, fit of % activity remaining vs [I], two independent replicates): 93.5 ± 17.1 µM
- Ki (AtAHAS P197L mutant [5]; Ki, P197L mutant, ± standard error of the mean): 93.5 ± 17.1 µM
- kiapp/k3 (efficiency of accumulative inhibition) (WT AtAHAS [6]): 20
- k3 (rate of recovery) (WT AtAHAS [6]; 160 mM pyruvate, 30 °C, ± SEM): 0.02 ± 0.001 min⁻¹
- kiapp (apparent rate of enzyme inactivation) (WT AtAHAS [6]; 160 mM pyruvate, 30 °C, ± SEM): 0.39 ± 0.06 min⁻¹
- k3, single progress curve (Supplementary Figure 8) (WT AtAHAS [6]; [16]): 0.021 min-1 and 0.02 min-1 (2×)
- kiapp, single progress curve (Supplementary Figure 8) (WT AtAHAS [6]; [16]): 0.34 min⁻¹ and 0.46 min⁻¹ and 0.36 min⁻¹
- k3 (rate of recovery) (AtAHAS W574L mutant [7]; 160 mM pyruvate, 30 °C): NAI
- kiapp (apparent rate of enzyme inactivation) (AtAHAS W574L mutant [7]; 160 mM pyruvate, 30 °C): NAI
- kiapp/k3 (efficiency of accumulative inhibition) (AtAHAS W574L mutant [7]): NAI
- k3 (rate of recovery) (AtAHAS P197T mutant [8]; 160 mM pyruvate, 30 °C): NAI
- kiapp (apparent rate of enzyme inactivation) (AtAHAS P197T mutant [8]; 160 mM pyruvate, 30 °C): NAI
- kiapp/k3 (efficiency of accumulative inhibition) (AtAHAS P197T mutant [8]): NAI
- kiapp/k3 (efficiency of accumulative inhibition) (AtAHAS S653T mutant [9]; S653T): 95
- efficiency of accumulative inhibition (kiapp/k3) compared to WT (in words) (AtAHAS S653T mutant [9]; S653T vs WT): increased
- k3 (rate of recovery) (AtAHAS S653T mutant [9]; S653T, 160 mM pyruvate, 30 °C, ± SEM): 0.02 ± 0.002 min⁻¹
- k3, single progress curve (Supplementary Figure 8) (AtAHAS S653T mutant [9]; [17]): 0.02 min⁻¹ and 0.023 min⁻¹ and 0.021 min⁻¹
- kiapp, single progress curve (Supplementary Figure 8) (AtAHAS S653T mutant [9]; [17]): 1.93 min⁻¹ and 1.94 min⁻¹ and 2.21 min⁻¹
- k3 (rate of recovery) (AtAHAS P197L mutant [10]; 160 mM pyruvate, 30 °C): NAI
- kiapp (apparent rate of enzyme inactivation) (AtAHAS P197L mutant [10]; 160 mM pyruvate, 30 °C): NAI
- kiapp/k3 (efficiency of accumulative inhibition) (AtAHAS P197L mutant [10]): NAI

SMILES: COC1=C(OC)C(=O)C(C)=CC1=O [Q0, ubiquinone Q0]
- inhibition at 500 µM (AtAHAS W574L mutant [11]): 97%
- inhibition at 500 µM (AtAHAS P197T mutant [12]): 91%
- inhibition at 500 µM (WT AtAHAS [13]): 82%
- inhibition at 500 µM (AtAHAS S653T mutant [14]): 85%
- inhibition at 500 µM (AtAHAS P197L mutant [15]): 89%
